Results as given in patent publication US20260092071A1, “COMPOUNDS AND COMPOSITIONS AS SMARCA2/4 DEGRADERS AND USES THEREOF” (REGENTS OF THE UNIVERSITY OF MICHIGAN, priority 2022, published 2026).

Columns and labels:
SMARCA2 = SMARCA2 (Homo sapiens, UniProt P51531); assay: HiBiT assay for protein degradation, Hela SMARCA2-HiBiT cells (A series); assay type: cell-based; design: Hela cells were genetically modified via CRISPR/Cas9 to fuse HiBiT to the carboxy terminus of SMARCA2; host or cells: HeLa (CRISPR/Cas9 HiBiT knock-in); conditions: Hela SMARCA2-HiBiT cells, 24 hours treatment; for DC50: read-out: SMARC A2 Hela HiBit DC50; for Dmax: read-out: SMARC A2 Hela HiBit Dmax (%);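 for SMARC A2 Hela HiBit Dmax (%): 24 h compound treatment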
Sequence of SMARCA2 (P51531 whole entry): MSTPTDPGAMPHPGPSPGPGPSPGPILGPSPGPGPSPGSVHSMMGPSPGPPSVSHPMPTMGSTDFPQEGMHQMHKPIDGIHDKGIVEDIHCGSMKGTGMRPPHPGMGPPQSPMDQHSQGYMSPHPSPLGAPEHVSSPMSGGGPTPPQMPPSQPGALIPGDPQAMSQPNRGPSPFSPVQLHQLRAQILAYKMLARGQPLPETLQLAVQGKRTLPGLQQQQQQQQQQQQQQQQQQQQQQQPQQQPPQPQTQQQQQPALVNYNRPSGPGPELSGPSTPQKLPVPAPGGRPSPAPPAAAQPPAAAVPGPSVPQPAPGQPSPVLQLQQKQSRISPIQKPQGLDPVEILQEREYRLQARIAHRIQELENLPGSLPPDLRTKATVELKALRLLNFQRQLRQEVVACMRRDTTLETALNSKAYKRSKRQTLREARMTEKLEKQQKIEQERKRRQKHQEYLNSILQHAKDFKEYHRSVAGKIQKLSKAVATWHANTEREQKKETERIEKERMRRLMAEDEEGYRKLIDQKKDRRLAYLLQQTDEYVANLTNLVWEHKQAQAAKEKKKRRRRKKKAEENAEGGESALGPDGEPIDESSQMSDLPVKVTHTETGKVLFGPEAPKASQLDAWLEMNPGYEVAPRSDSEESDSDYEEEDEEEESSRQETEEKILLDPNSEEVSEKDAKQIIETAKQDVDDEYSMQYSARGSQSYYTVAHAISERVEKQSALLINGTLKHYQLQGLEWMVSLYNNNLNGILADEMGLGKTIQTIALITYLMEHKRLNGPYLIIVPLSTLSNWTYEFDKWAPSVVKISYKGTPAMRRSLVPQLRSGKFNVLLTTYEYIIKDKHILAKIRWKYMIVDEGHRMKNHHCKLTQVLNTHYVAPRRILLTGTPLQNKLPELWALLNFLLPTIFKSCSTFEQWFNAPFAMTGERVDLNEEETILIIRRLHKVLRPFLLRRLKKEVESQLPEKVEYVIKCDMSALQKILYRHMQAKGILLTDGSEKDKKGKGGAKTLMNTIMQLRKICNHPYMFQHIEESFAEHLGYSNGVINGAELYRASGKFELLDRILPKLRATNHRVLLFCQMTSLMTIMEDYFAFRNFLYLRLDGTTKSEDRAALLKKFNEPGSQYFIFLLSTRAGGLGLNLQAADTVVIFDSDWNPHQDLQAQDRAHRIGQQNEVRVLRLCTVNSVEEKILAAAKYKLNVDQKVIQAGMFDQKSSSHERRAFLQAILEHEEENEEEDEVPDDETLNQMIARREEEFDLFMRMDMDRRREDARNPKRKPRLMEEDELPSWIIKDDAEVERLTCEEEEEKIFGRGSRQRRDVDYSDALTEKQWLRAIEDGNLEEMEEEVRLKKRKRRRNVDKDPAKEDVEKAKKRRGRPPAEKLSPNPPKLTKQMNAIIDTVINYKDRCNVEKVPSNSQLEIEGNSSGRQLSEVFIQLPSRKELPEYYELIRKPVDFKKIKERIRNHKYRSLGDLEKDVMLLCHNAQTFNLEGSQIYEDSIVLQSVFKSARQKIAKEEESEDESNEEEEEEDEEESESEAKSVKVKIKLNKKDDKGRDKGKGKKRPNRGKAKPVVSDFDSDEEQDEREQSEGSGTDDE
In short: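 SMARCA2 degradation was measured in HeLa cells whose endogenous SMARCA2 carries a carboxy-terminal HiBiT tag introduced by CRISPR/Cas9 (Promega CS302365). Cells were maintained in DMEM with FBS and penicillin-streptomycin. SMARCA2 levels were read at the end of the experiment by Nano-Glo® HiBiT lytic luminescence (Promega N3050) and analyzed in GraphPad Prism.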

SMARCA4 = SMARCA4 (Homo sapiens, UniProt P51532); assay: HiBiT assay for protein degradation, Hela SMARCA4-HiBiT cells (A series); assay type: cell-based; design: fuse HiBiT to the carboxy terminus of SMARCA2 (Promega CS302365) or SMARCA4 (Promega CS3023225); host or cells: HeLa (CRISPR/Cas9 HiBiT knock-in); conditions: Hela SMARCA4-HiBiT cells, 24 hours treatment; for Dmax: read-out: SMARC A4 Hela HiBit Dmax; for DC50: read-out: SMARC A4 Hela HiBit DC50
Sequence of SMARCA4 (P51532 whole entry): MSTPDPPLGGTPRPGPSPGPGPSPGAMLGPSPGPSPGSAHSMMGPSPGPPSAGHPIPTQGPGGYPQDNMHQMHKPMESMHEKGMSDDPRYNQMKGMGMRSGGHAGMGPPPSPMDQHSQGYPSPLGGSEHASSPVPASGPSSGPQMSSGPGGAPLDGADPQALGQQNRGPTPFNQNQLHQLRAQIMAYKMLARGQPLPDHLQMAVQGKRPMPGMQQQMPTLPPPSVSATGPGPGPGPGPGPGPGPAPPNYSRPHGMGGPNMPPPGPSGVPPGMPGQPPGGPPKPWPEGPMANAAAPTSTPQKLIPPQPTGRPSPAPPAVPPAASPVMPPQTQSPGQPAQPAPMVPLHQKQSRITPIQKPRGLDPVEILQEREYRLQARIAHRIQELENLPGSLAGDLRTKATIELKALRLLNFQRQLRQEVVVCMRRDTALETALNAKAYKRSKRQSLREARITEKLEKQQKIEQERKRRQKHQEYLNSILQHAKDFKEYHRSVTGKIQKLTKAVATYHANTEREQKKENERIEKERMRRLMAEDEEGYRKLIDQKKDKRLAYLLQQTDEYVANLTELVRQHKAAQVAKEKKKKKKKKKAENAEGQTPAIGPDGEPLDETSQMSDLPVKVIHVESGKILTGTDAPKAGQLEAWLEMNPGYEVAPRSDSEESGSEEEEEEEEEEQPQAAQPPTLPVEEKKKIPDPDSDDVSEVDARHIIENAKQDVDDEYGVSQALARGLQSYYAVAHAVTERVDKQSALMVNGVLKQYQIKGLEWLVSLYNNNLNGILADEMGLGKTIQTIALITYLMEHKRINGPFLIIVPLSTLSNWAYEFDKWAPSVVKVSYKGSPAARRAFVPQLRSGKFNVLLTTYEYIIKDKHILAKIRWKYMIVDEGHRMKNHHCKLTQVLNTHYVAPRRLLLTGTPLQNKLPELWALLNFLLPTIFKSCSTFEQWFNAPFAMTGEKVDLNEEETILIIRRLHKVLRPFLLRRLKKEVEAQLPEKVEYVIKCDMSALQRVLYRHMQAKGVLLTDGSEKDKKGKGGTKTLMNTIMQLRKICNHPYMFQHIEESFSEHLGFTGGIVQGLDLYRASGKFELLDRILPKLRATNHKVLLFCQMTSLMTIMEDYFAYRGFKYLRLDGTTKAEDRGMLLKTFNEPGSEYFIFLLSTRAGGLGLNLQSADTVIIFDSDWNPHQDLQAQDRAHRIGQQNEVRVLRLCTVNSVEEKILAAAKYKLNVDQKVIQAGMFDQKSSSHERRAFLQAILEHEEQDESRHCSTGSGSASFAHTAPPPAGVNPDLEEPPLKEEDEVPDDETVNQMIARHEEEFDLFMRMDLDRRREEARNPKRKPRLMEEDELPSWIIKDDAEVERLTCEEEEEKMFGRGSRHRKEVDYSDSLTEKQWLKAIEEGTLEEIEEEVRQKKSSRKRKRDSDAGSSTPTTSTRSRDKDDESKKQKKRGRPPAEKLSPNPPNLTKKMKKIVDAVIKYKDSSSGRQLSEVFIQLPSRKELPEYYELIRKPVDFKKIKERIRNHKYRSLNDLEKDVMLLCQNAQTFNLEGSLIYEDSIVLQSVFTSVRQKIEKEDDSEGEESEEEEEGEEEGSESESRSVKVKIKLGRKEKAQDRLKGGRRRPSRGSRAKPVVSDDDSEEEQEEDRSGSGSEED
In short: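 SMARCA4 degradation was measured in HeLa cells in which HiBiT had been knocked into the SMARCA4 carboxy terminus via CRISPR/Cas9 (Promega CS3023225). Cells were maintained in DMEM with FBS and penicillin-streptomycin. At the end of treatment, SMARCA4 levels were read by lytic HiBiT luminescence (Nano-Glo®, Promega N3050), and data were analyzed with GraphPad Prism.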

DC50 (SMARCA2) [nM]	Dmax (SMARCA2) [%]	SMARC A4 Hela HiBit DC50(nM) (SMARCA4)	Dmax (SMARCA4) [%]	DC50 (SMARCA4) [nM]	SMILES
< 10	> 90	No fit	50 to 69		Cc1ncsc1-c1ccc([C@H](CN2CCOCC2)NC(=O)[C@@H]2C[C@@H](O)CN2C(=O)[C@H](C2CCCCC2)n2cc([C@H]3CC[C@H](CN4CCC(c5ccc6c(c5)-n5c(nc(=O)c7c(Cl)cccc75)C6(C)C)CC4)CC3)nn2)cc1 [Compound A125, (2S,4R)-1-((S)-2-(4-((1r,4S)-4-((4-(4-chloro-7,7-dimethyl-5-oxo-5,7-dihydroindolo[1,2-a]quinazolin-10-yl)piperidin-1-yl)methyl)cyclohexyl)-1H-1,2,3-triazol-1-yl)-2-cyclohexylacetyl)-4-hydroxy-N—((R)-1-(4-(4-methylthiazol-5-yl)phenyl)-2-morpholinoethyl)pyrrolidine-2-carboxamide]
< 10	> 90		50 to 69	10 to 100	Cc1ncsc1-c1ccc([C@H](CO)NC(=O)[C@@H]2C[C@@H](O)CN2C(=O)[C@H](C2CCCCC2)n2cc([C@H]3CC[C@H](CN4CCC(c5ccc6c(c5)-n5c(nc(=O)c7c(Cl)cccc75)C65CCCCC5)CC4)CC3)nn2)cc1 [Compound A126, (2S,4R)-1-((S)-2-(4-((1r,4S)-4-((4-(4′-chloro-5′-oxo-5′H-spiro[cyclohexane-1,7′-indolo[1,2-a]quinazolin]-10′-yl)piperidin-1-yl)methyl)cyclohexyl)-1H-1,2,3-triazol-1-yl)-2-cyclohexylacetyl)-4-hydroxy-N—((R)-2-hydroxy-1-(4-(4-methylthiazol-5-yl)phenyl)ethyl)pyrrolidine-2-carboxamide]
< 10	> 90		70 to 90	< 10	Cc1ncsc1-c1ccc([C@H](CO)NC(=O)[C@@H]2C[C@@H](O)CN2C(=O)[C@H](C2CCCCC2)n2cc([C@H]3CC[C@H](CN4CCC(c5ccc6c(c5)-n5c(nc(=O)c7c(Br)cccc75)C65CCCCC5)CC4)CC3)nn2)cc1 [Compound A127]
100 to 1000	50 to 69		< 50	> 1000	Cc1ncsc1-c1ccc([C@H](CN2CCOCC2)NC(=O)[C@@H]2C[C@@H](O)CN2C(=O)[C@H](C2CCCCC2)n2cc(-c3ccc(CN4CCC(c5ccc6c(c5)-n5c(nc(=O)c7c(Br)cccc75)C65CCCCC5)CC4)cc3)nn2)cc1 [Compound A128, (2S,4R)-1-((S)-2-(4-(4-((4-(4′-bromo-5′-oxo-5′H-spiro[cyclohexane-1,7′-indolo[1,2-a]quinazolin]-10′-yl)piperidin-1-yl)methyl)phenyl)-1H-1,2,3-triazol-1-yl)-2-cyclohexylacetyl)-4-hydroxy-N—((R)-1-(4-(4-methylthiazol-5-yl)phenyl)-2-morpholinoethyl)pyrrolidine-2-carboxamide]
100 to 1000	50 to 69		< 50	> 1000	Cc1ncsc1-c1ccc([C@H](CO)NC(=O)[C@@H]2C[C@@H](O)CN2C(=O)[C@H](C2CCCCC2)n2cc(-c3ccc(CN4CCC(c5ccc6c(c5)-n5c(nc(=O)c7c(Br)cccc75)C65CCCCC5)CC4)cc3)nn2)cc1 [Compound A129]
10 to 100	> 90		< 50	> 1000	Cc1ncsc1-c1ccc([C@H](CN2CCOCC2)NC(=O)[C@@H]2C[C@@H](O)CN2C(=O)[C@H](C2CCCCC2)n2cc([C@H]3CC[C@H](CN4CCC(c5ccc6c(c5)-n5c(nc(=O)c7c(Cl)cccc75)C65CCCCC5)C4)CC3)nn2)cc1 (stereo partly drawn) [Compound A130, (2S,4R)-1-((2S)-2-(4-((1r,4S)-4-((3-(4′-chloro-5′-oxo-5′H-spiro[cyclohexane-1,7′-indolo[1,2-a]quinazolin]-10′-yl)pyrrolidin-1-yl)methyl)cyclohexyl)-1H-1,2,3-triazol-1-yl)-2-cyclohexylacetyl)-4-hydroxy-N—((R)-1-(4-(4-methylthiazol-5-yl)phenyl)-2-morpholinoethyl)pyrrolidine-2-carboxamide]
